The values below come from PMC10068595, “Novel asymmetrical azines appending 1,3,4-thiadiazole sulfonamide: synthesis, molecular structure analyses, in silico ADME, and cytotoxic effect” (RSC Advances, 2023).

What all share (type): cell-based
The subject of one test is Caco2. Put plainly: MTT cytotoxicity assay, Caco2. The note with it: Homo sapiens, Caco-2, colon cancer Caco2, 48 h. The protocol:
(§1) HepG2, MCF-7, WI 38, Caco-2 cancer cell lines were cultured in complete media of RPMI and DMEM, respectively, at 5% carbon dioxide and 37 °C following standard tissue culture work. The cells were grown in “10% fetal bovine serum (FBS) and 1% penicillin–streptomycin” in 96-multiwell plate. All the synthesized compounds were screened for their cytotoxicity using 20 μL of MTT solution (Promega, USA) for 48 h using untreated and treated cells with concentrations of (0.01, 0.1, 1, 10, and 100 μM) for 48 h.[41,42] The plate was cultured for 3 hours. The percentage of cell viability was calculated following this equation: […]. An ELISA microplate reader was used to measure the absorbance at 690 nm to calculate the viability versus concentration, and the IC50 value using GraphPad prism software.
Background: Formazan colour is commonly taken as a measure of viable cells.

For the next test, the system named is WI 38. Kind of test: MTT cytotoxicity assay, normal lung fibroblast WI 38. The note with it: Homo sapiens, 48 h. How it is done:
as §1

A further test relates to MCF-7. Put plainly: MTT cytotoxicity assay, MCF-7. The note with it: Homo sapiens, MCF7, breast cancer MCF-7, 48 h. How it is done: as §1
For a further test, the system named is HepG-2. Put plainly: MTT cytotoxicity assay, HepG-2. The note with it: Homo sapiens, HepG2, hepatocellular carcinoma HepG-2, 48 h. The protocol: as §1

For orientation: IC50 means the concentration that inhibits the measured activity by half. A lower IC50 goes with inhibition by little substance. As for `COc1ccc(C=NN=C(C)c2nn(-c3ccc(S(N)(=O)=O)cc3)c(=N)s2)cc1` [Compound 7a, 4-[2-Imino-5-(-1-((4-methoxybenzylidene)hydrazineylidene)ethyl)-1,3,4-thiadiazol-3(2H)-yl]benzenesulfonamide], the half-maximal inhibitory concentration (IC50) in the test with Caco2 came to 3.16 ± 0.2 µM; in the test with WI 38 it was 28.2 ± 1.5 µM; in the test on MCF-7, 31.5 ± 1.4 µM; with HepG-2, 4.17 ± 0.2 µM.
On to `CC(=NN=Cc1ccc(N(C)C)cc1)c1nn(-c2ccc(S(N)(=O)=O)cc2)c(=N)s1` [Compound 7b, 4-[5-(1-((4-(Dimethylamino)benzylidene)hydrazineylidene)ethyl)-2-imino-1,3,4-thiadiazol-3(2H)-yl]benzenesulfonamide], for which the concentration for half-maximal inhibition (IC50) was 33.6 ± 1.7 µM in the test on Caco2, 49.8 ± 2.6 µM in the test with WI 38, 35.2 ± 1.6 µM with MCF-7 and 26.8 ± 1.5 µM in the test on HepG-2.
For `CC(=NN=Cc1ccc([N+](=O)[O-])cc1)c1nn(-c2ccc(S(N)(=O)=O)cc2)c(=N)s1` [Compound 7c, 4-[2-Imino-5-(1-((4-nitrobenzylidene)hydrazineylidene)ethyl)-1,3,4-thiadiazol-3(2H)-yl]benzenesulfonamide], the IC50 with Caco2 was determined as 3.37 ± 0.2 µM; with WI 38 it was 25.4 ± 1.9 µM; in the test on MCF-7 it was 9.59 ± 0.4 µM; in the test on HepG-2, 3.04 ± 0.2 µM.
`COc1cc(OC)c(C=NN=C(C)c2nn(-c3ccc(S(N)(=O)=O)cc3)c(=N)s2)c(OC)c1` [Compound 9, 4-[2-Imino-5-(1-((2,4,6-trimethoxybenzylidene)hydrazineylidene)ethyl)-1,3,4-thiadiazol-3(2H)-yl]benzenesulfonamide]: the IC50 with Caco2 amounted to 47.2 ± 2.3 µM; in the test on WI 38 it was 25.4 ± 1.3 µM; in the test on MCF-7, 7.21 ± 0.3 µM; in the test with HepG-2, 12.2 ± 0.7 µM.
For `CC(=NN=Cc1ccco1)c1nn(-c2ccc(S(N)(=O)=O)cc2)c(=O)s1` [Compound 11, 4-[5-(1-((Furan-2-ylmethylene)hydrazineylidene)ethyl)-2-oxo-1,3,4-thiadiazol-3(2H)-yl]benzene sulfonamide], the 50% inhibitory concentration (IC50) with Caco2 was found to be 8.55 ± 0.4 µM; in the test with WI 38, 24.5 ± 1.8 µM; in the test on MCF-7 it was 3.34 ± 0.2 µM; in the test on HepG-2, 15 ± 0.8 µM.
For `CC(=NN=C1C(=O)Nc2ccccc21)c1nn(-c2ccc(S(N)(=O)=O)cc2)c(=N)s1` [Compound 13, 4-[2-Imino-5-(1-((2-oxoindolin-3-ylidene)hydrazineylidene)ethyl)-1,3,4-thiadiazol-3(2H)-yl]benzenesulfonamide], the IC50 was 8.99 ± 0.4 µM with Caco2, 11.4 ± 0.6 µM in the test with WI 38, 17.7 ± 0.8 µM with MCF-7 and 1.76 ± 0.1 µM in the test with HepG-2.
Regarding `CC(=NN=C1C(=O)N(CN(C)C)c2ccccc21)c1nn(-c2ccc(S(N)(=O)=O)cc2)c(=N)s1` [Compound 15a, 4-[5-(1-((1-((Dimethylamino)methyl)-2-oxoindolin-3-ylidene)hydrazineylidene)ethyl)-2-imino-1,3,4-thiadiazol-3(2H)-yl]benzenesulfonamide], the concentration for half-maximal inhibition (IC50) with Caco2 came out at 2.33 ± 0.1 µM; in the test on WI 38, 13.4 ± 0.7 µM; with MCF-7, 4.34 ± 0.2 µM; with HepG-2, 6.54 ± 0.4 µM.
In the case of `CCN(CC)CN1C(=O)C(=NN=C(C)c2nn(-c3ccc(S(N)(=O)=O)cc3)c(=N)s2)c2ccccc21` [Compound 15b, 4-[5-(1-((1-((Diethylamino)methyl)-2-oxoindolin-3-ylidene)hydrazineylidene)ethyl)-2-imino-1,3,4-thiadiazol-3(2H)-yl)benzenesulfonamide], the IC50 in the test on Caco2 is 0.78 ± 0.04 µM; in the test on WI 38, 16.8 ± 0.9 µM; in the test with MCF-7 it was 4.43 ± 0.2 µM; in the test on HepG-2, 1.62 ± 0.1 µM.
